We go through 2 compounds from patent US20240010729A1, “COMBINATION THERAPY OF A PD-1 ANTAGONIST AND LAG3 ANTAGONIST AND LENVATINIB OR A PHARMACEUTICALLY ACCEPTABLE SALT THEREOF FOR TREATING PATIENTS WITH CANCER” (MERCK SHARP & DOHME LLC, priority 2020, published 2024).

One assay deals with CT26 colorectal model. As to the kind of experiment: CT26 mouse syngeneic tumor model (tumor growth inhibition, survival). The conditions noted are these: CT26, Day 17; lenvatinib 10 mg/kg oral QD, antibodies 10 mg/kg i.p. every 5 days.
Assay [1] deals with mCRC that is non MSI-H/pMMR. To be noted: third line mCRC patients; cited from earlier work.

Text for CT26 colorectal model: Prior to treatment initiation, female BALB/c mice (for CT26 study) or C57BL/6J mice (for KPC-2838c3 study) aged 8 weeks weighing between 18 to 21 grams were anesthetized and subcutaneously injected into the rear flank with 0.3×10^6 CT26 or 0.5×10^6 KPC-2838c3 log-phase sub-confluent cells. When the mean tumor volume of inoculated animals reached approximately 100 mm^3 (II days later for CT26, 15 days later for KPC-2838c3) mice were pair-matched into 8 treatment groups consisting of 10 mice per group. Treatment groups consisted of: 1) 0.5% methylcellulose (Vehicle)+Isotype mouse IgG1 antibody (migG1); 2) Vehicle+anti-PD-1 mIgG1 antibody (muDX400); 3) Vehicle+anti-LAG3 mIgG1 antibody (28G10); 4) Lenvatinib+isotype; 5) Vehicle+anti-PD-1+anti-LAG3; 6) Lenvatinib+anti-PD-1; 7) Lenvatinib+anti-LAG3; 8) Lenvatinib+anti-PD-1+anti-LAG3. Vehicle and lenvatinib were orally gavage-dosed once daily (QD) at 10 mg/kg body weight. Isotype control, a mouse monoclonal antibody specific for adenoviral hexon of the isotype IgG1, as well as anti-PD-1 and anti-LAG3 antibodies were dosed intraperitoneally every 5 days at 10 mg/kg body weight. Start of treatments was considered Day 0 and dosing based on schedules continued as described until Day 35. Caliper measurements of tumors and body weights were captured twice weekly. […]

On to `COc1cc2nccc(Oc3ccc(NC(=O)NC4CC4)c(Cl)c3)c2cc1C(N)=O` [Lenvatinib, 4-[3-chloro-4-(cyclopropylaminocarbonyl)aminophenoxy]-7-methoxy-6-quinolinecarboxamide], for which the “TGI (tumor growth inhibition) respective to Vehicle-treated animals” value in the assay with CT26 colorectal model stood at 54%. Turning to `CNC(=O)c1cc(Oc2ccc(NC(=O)Nc3ccc(Cl)c(C(F)(F)F)c3)c(F)c2)ccn1` [regorafenib], the “6-month PFS rate” value in assay [1] was about 15%.
